We go through 1 compound from patent EP2444396A1, “PHOTOPROTECTIVE COMPOSITION” (Apoteknos Para La Piel, S.L., priority 2009, dated 2010).

Data set [1] in a line: Specific molar absorptivity of p-nitrolophine in MeOH at 379 nm. The class given is physicochemical. How it is done:
As a preliminary step, in the case of p-nitrolophine the specific molar absorptivity of the molecule (ε) (A^11) was determined. To that end, 50.4 mg of p-nitrolophine were weight, they were dissolved in 100.0 mL of MeOH (ppa); 4 dilutions were then performed by taking 1.0, 2.0, 5.0 and 10.0 mL from this mother liquor and topping up each of them to a volume of 100.0 ml with MeOH (ppa). […]
The slope of the straight line obtained from these points (Y= 16.717x + 0.03; R2 = 0.9993) therefore coincides with the value of specific molar absorptivity of p-nitrolophine at 379 nm ε(379nm) = 16.717 A.U.L/mol [formula]

A short description of data set [2]: Absorption spectrum in methanol (195 - 400 nm). The settings on record: peak wavelength, 10 mg/ml. It counts as physicochemical. How it is done: In order to determine the absorption spectrum, a solution of 10 mg/ml of methanol was prepared from each of the substances. The methanol in turn was used to adjust the zero absorbance in each of the wavelengths in the range of 195 - 400 nm.

Data set [3] has as its system Erythema induced by UVB radiation in mouse. Put plainly: Photoprotection: erythema induced by UVB radiation in mouse skin. The class given is in vivo. Set-up: key to Erythema induced by UVB radiation in mouse: presence (+); absence (-). Conditions: individual animals No. 1-10; 0.5% gel topical, about 2.5 kJ/m^2 UVB, 24 hours after exposure. The text has this: The effect of p-nitrolophine and m-nitrolophine on erythema due to exposing the mouse skin to an irradiation source at maximum in the UVB region has been studied in these assays. The results obtained have been compared with the effect of 4-methylbenzylidene camphor (P5000) a substance considered as a UVB solar filter and with the effect of butyl methoxydibenzoylmethane (P1789) an UVA type filter, both products being commonly used in antisolar cosmetics.
35 male mice weighing more than 20 grams have been used. After receiving them, the animals were acclimated for 7 days at the place where the assays were preformed, they were being placed in a cage with controlled temperature (22°C), with relative humidity between 50% and 75%, replacing fresh filtered air approximately 10 times per hour and with 12 h light/dark cycles (7.00 - 19.00 light and from 19.00 to 7.00 dark). For this period and during the experimental period, the animals were fed ad libitum with standard diet for rodents and running water as drink.
The animals were randomly distributed into 4 experimental groups according to Table 7. The products to be tested were directly used, applying them in the form of a gel on an area of the skin such that each animal form its own control.
The test was performed following the method described by Winder et al. ["A study of Pharmacological influences on ultraviolet erythema in guinea pigs". Arch. Int Pharmacodyn, 116:261-292; 1958] and by other authors [Wendy et al. "The local antinociceptive and topical antiinflamatory effects of propyl gallate in rodents". Br. J. Pharmacol, 58:573 -581; 1976; Katiyar et al. "Protective Effects of Silymarin Against Photocarcinogenesis in a Mouse Skin Model". J Natl Cancer Inst 89:556-65; 1997] with slight modifications. The day […] the assay, as much hair as possible were removed from the animals by applying a layer of commercial hair-removing cream to remove all the trace of hair and to leave the skin of the back completely bare. The rest of the hair-removing cream were removed by means of washing and rinsing with running water and the animals were the returned to their corresponding cages where they remained until the following day.
On the day of the assay, the substances to be assayed were blindly applied on the back of the previously labelled animals following a random pattern (randomized). After applying the corresponding treatments, the animals were placed and pinned to the presentation platform of the equipment. The animals were then placed 8 cm from an ultraviolet light source of 4*40w with 313 nm of fundamental emission and a range comprised approximately between 290 and 350 nm and with an anti-UVC filter. The emission spectrum of said light source is depicted in Figure 1.
The exposure was maintained until all the animals have received an approximate total dose of 2.5 kJ/m^2. The dose of irradiation applied was determined by means of a ultraviolet light detector, the response curve of which is shown in Figure 2.
Twenty four hours after ending the exposure, the back of the animals was photographed and they were returned to their cages. The evaluation of erythema was performed by means of a positive/negative criterion, the percentage of protected animals being obtained. The statistic significance of the difference was evaluated by means of the non-parametric Fisher Test.

Data set [4] is described as follows: Photostability evaluation (irradiation in MeOH, TLC analysis). The class given is physicochemical. The settings on record: MeOH, irradiated for 2 hours, 450W lamp; approximate estimation of the total sum of photoproducts. How it is done:
All the irradiations preformed in the photostability studies were carried out in an ACE 7840 photoreactor using a 450W power ACE 7825 lamp.
The solvent used in the photostability test was methanol [MeOH] (ppa) (250 mL), using a concentration of […] of p-nitrolophine. The solution was irradiated for 2 hours, samples being taken at 10 minutes, 20 minutes, 1 hour and 2 hours, and being dried in a rotating evaporator. Each sample was analyzed by thin layer chromatography (TLC in Silica gel) using petroleum ether:ethyl acetate (4:1) as eluent. The chromatography plates were viewed under a 254 nm lamp and a 366 nm lamp, as well as by means of simultaneous viewing under both lamps (254 and 366 nm).
Specifically, three photoproducts (three blots) could be determined, which were isolated by preparative TLC.
A saturated solution of m-nitrolophine in MeOH was prepared to perform the study since the solubility in this solvent is low (approximately 0.2 mg/mL). Briefly, an amount of m-nitrolophine sufficient to ensure the saturation in 200 mL of MeOH throughout the night was left stirring. The solution was filtered and irradiated for 2 hours, samples of 10 mL being taken at 10 minutes, 20 minutes, 1 hour and 2 hours, and being dried in rotating evaporator. […]

The nature of data set [5]: UV spectrum: wavelengths of maximum absorption and absorbance (Cecil 2021 UV-Visible Spectrophotometer). The class given is physicochemical.

Values joined by “and” are separate entries in the source; they are usually repeats but may differ in a detail not shown here. Equal values may be shown once.

Regarding `O=[N+]([O-])c1ccc(-c2nc(-c3ccccc3)c(-c3ccccc3)[nH]2)cc1` [p-nitrolophine, 2-(4-nitrophenyl)-4,5-diphenyl-1H-imidazole], the “specific molar absorptivity ε(379nm)” value in data set [1] (379 nm, slope of the straight line) was 16.717 A.U.L/mol. In addition, the “Abs. at 379 nm (A.U.)” value is listed as 0.2572 A.U in data set [1] (Concentration (mol) 0.0000147), 0.5214 A.U in data set [1] (Concentration (mol) 0.00002953), 1.301 A.U in data set [1] (Concentration (mol) 0.00007382) and 2.4819 A.U in data set [1] (Concentration (mol) 0.00014764). Further, the maximum absorption in data set [2] was determined as 379 nm. For the same compound, the “Erythema induced by UVB radiation in mouse” value in data set [3] is recorded as “-”. Further, the degradation entry in data set [4] was “lower than 5%”. In addition, in data set [5] (absorbance at the maximum of the same line), the “UV spectrum A (a.u)” value was 0.715 a.u and 0.669 a.u and 0.774 a.u. The “UV spectrum λ (nm)” value in data set [5] (wavelengths of the maximum absorption) was 221.0 nm and 255.0 nm and 379.0 nm.
